This is an account of results in the OPERA property sets (Mansouri et al. 2018).

As usually defined, the logP is the decadic logarithm of the partition coefficient of the neutral form, usually between octanol and water. Lower therefore signals lower lipophilicity.

Structures are written as SMILES.

`Nc1ccc(C(F)(F)F)cc1`: the logP stood at 1.95.

With `O=C1CNC(=O)N1Cc1ccccc1`, the logP amounted to 0.82.

On to `CC(C)c1ccc(C2C(=O)c3ccccc3C2=O)cc1`, for which the logP was found to be 4.43.

In turn, `CNC12CCCCC1CSc1ccccc12` (configuration not stated) registered a logP of 3.88.

Compound `CN(c1ccccc1)S(C)(=O)=O` returned a logP of 1.02.

On to `Cc1c(C)c(C)c(C)c(C)c1C`, for which the log partition coefficient (logP) amounted to 5.11.

For `Cc1ccc(C(=O)C(C)CN2CCCCC2)cc1` (configuration not stated), the log partition coefficient (logP) is 3.65.

`CC(CCC(=O)NCc1ccccc1)C1CCC2C3C(O)CC4CC(O)CCC4(C)C3CC(O)C12C` (configuration not stated): the logP was 3.54.

Regarding `CC(=O)Nc1nc(=O)cc(-c2ccc([N+](=O)[O-])o2)s1`, the logP was found to be 1.01.

Consider `CCCCCCCC(=O)n1cc(CC(NC(=O)CC2NC(=O)C3C4CCC(CC4)N3C2=O)C(=O)NC(Cc2ccccc2)C(=O)N(C)Cc2ccccc2)c2ccccc21` (configuration not stated), for which the lipophilicity (logP) amounted to 7.29.

Compound `COC(=O)NC1=NCC(c2cccc(F)c2)N1` (configuration not stated) displayed a logP of 1.41.

Regarding `Cn1cnc([N+](=O)[O-])c1Cl`, the log partition coefficient (logP) was found to be 1.06.

`Cc1cccc(C)c1C(=O)CCN1CCCCC1` yielded a logP of 3.53.

`NC(=O)c1csc([C@@H]2O[C@H](CO)[C@@H](O)[C@H]2O)n1` had a logP of -1.73.

Consider `CSc1ccc(OCc2ncc([N+](=O)[O-])n2C)cc1`, for which the logP came to 2.5.

`CC1CCC2C(C)C(O)OC3OC4(C)CCC1C32OO4` (configuration not stated) displayed a logP of 2.19.

`Cc1ccc(CC#N)cc1` had a logP of 1.67.

On to `O=C1NC(=O)C(Cc2ccccc2)(Cc2ccccc2)N1`, for which the logP came to 2.46.

For the compound `CCn1cc(C(=O)O)c(=O)c2cc(F)c(N3CCN(C)CC3)c(F)c21`, the logP turned out to be 0.3.

Take `NS(=O)(=O)c1cc2c(cc1Cl)NC(C(Cl)(Cl)Cl)NS2(=O)=O` (configuration not stated): the logP was 0.82.

`Cc1ccc(OCC(OC(=S)n2ccnc2)C(C)(C)C)cc1` (configuration not stated) showed a logP of 4.66.

Compound `COc1ccc(OCC(OC(=S)n2ccnc2)C(C)(C)C)cc1` (configuration not stated) came in with a lipophilicity (logP) of 4.31.

On to `Nc1c(Cl)c(Cl)c(Cl)c(Cl)c1Cl`, for which the lipophilicity (logP) came to 4.82.

For `OC[C@@H](O)[C@H]1O[C@@H]2O[C@H](C(Cl)(Cl)Cl)O[C@@H]2[C@H]1O`, the logP came out at 1.02.

The compound `Clc1cccc(Cl)c1Cl` displayed a logP of 4.05.

On to `Cc1ccc(C)c(C(=O)NS(=O)(=O)c2ccc(N)cc2)c1`, for which the log partition coefficient (logP) came out at 2.19.

As for `CCCCNC(=O)CCn1ccc(=O)c(O)c1C`, the logP was -0.1.

`CN(C)CC/C=C1\c2ccccc2COc2ccccc21` yielded a logP of 4.29.

The compound `NC(=O)c1cc2ccccc2[nH]1` came in with a logP of 1.61.

The compound `CC(C)CC1NC(=O)NC1=O` (configuration not stated) registered a lipophilicity (logP) of 0.35.

`CCNC(=O)NCCCCn1nc(-c2ccccc2)ccc1=O` showed a log partition coefficient (logP) of 1.83.

For the compound `CCCCCCn1ccc(=O)c(O)c1C`, the lipophilicity (logP) worked out at 1.9.

`NC1C2CCC1c1cc(C(F)(F)F)ccc1C2` (configuration not stated) showed a logP of 3.59.

The compound `CCc1ccc(OCC(OC(=S)n2ccnc2)C(C)(C)C)cc1` (configuration not stated) registered a logP of 5.09.

With `Clc1cccc(-c2cc(Cl)cc(Cl)c2)c1`, the logP came out at 5.81.

Regarding `O=C(O)CCCCOc1cccc2ccccc12`, the logP worked out at 4.

`Cc1nn(-c2ccccc2)c(Nc2ccccc2)c1[N+](=O)[O-]` had a logP of 2.98.

In turn, `CCOc1ccc(OCC(OC(=S)n2ccnc2)C(C)(C)C)cc1` (configuration not stated) had a logP of 4.58.

`CN[C@@H](C)[C@H](O)c1ccccc1.Cl` came in with a logP of -2.45.

`O=C(O)Cn1nnc2ccccc21` showed a log partition coefficient (logP) of -1.88.

As to `CN(C)C(=O)n1cc(F)c(=O)[nH]c1=O`, the logP is -0.37.

Consider `Cc1ccc(C(=O)CCN2CCCCC2)cc1`, for which the lipophilicity (logP) was 3.55.

With `NS(=O)(=O)c1cc2c(cc1[N+](=O)[O-])N=CNS2(=O)=O`, the logP was determined as 0.08.

Compound `CCCN1Cn2c(nc3ccccc3c2=O)C1C` (configuration not stated) came in with a logP of 1.4.

In turn, `OC(Cn1ccnc1)(c1ccc(F)cc1)c1ccc(-c2ccncc2)cc1` (configuration not stated) yielded a logP of 2.47.

The compound `CCCN1CCOC2c3cccc(O)c3OCC21` (configuration not stated) displayed a lipophilicity (logP) of 1.93.

`CCN1C(=O)NC(Cc2ccccc2)C1=O` (configuration not stated) returned a log partition coefficient (logP) of 1.61.

The compound `O=C(O)Cc1cc(O)ccc1O` showed a logP of 0.86.

In turn, `COC(=O)n1cc(CC(NC(=O)CC2NC(=O)C3C4CCC(CC4)N3C2=O)C(=O)NC(Cc2ccccc2)C(=O)N(C)Cc2ccccc2)c2ccccc21` (configuration not stated) gave a logP of 4.05.

`CC(C)Oc1ccc(OCC(OC(=O)n2ccnc2)C(C)(C)C)cc1` (configuration not stated) yielded a logP of 4.08.

Consider `CC(=O)n1cc(CC(NC(=O)CC2NC(=O)C3C4CCC(CC4)N3C2=O)C(=O)NC(Cc2ccccc2)C(=O)N(C)Cc2ccccc2)c2ccccc21` (configuration not stated), for which the log partition coefficient (logP) came out at 3.69.

In turn, `Nc1cc([N+](=O)[O-])ccc1O` yielded a logP of 1.26.

Take `CCCC(=O)OCC1OC(n2cc(F)c(=O)[nH]c2=O)CC1OC(=O)CCC` (configuration not stated): the logP was found to be 1.9.

For `Cc1ccc2nccc(=O)n2c1`, the logP is 0.61.

`CCCCCCCOC(=O)c1cc(=O)[nH]c(=O)[nH]1` showed a logP of 2.15.

Consider `COC(=O)NC1=NCC(c2ccc(C(C)C)cc2)N1` (configuration not stated), for which the logP came to 2.6.

For `OCC1OC(O)C(O)C(O)C1O` (configuration not stated), the lipophilicity (logP) is -3.24.

In turn, `Nc1nc(=O)n(C2OC(CO)CC2F)cc1F` (configuration not stated) gave a lipophilicity (logP) of -0.92.

`Nc1cc(Cl)ccc1Cl`: the logP stood at 2.75.

As to `CC(C)(C)C(COc1ccc(C#N)cc1)OC(=O)n1ccnc1` (configuration not stated), the logP is 3.15.

For the compound `Oc1cc(Cl)c(Cl)c(Cl)c1O`, the logP turned out to be 3.71.

The compound `NC(=O)c1cnc2n(c1=O)CCCC2` gave a log partition coefficient (logP) of -0.38.

`CC(C)(C)C(COc1ccccc1)OC(=O)n1ccnc1` (configuration not stated) displayed a lipophilicity (logP) of 3.58.

For `CCOP(=O)(OCC)OC(=CCl)c1ccc(Cl)cc1Cl`, the log partition coefficient (logP) was determined as 3.81.

Consider `O=[N+]([O-])c1cnc(-c2ccc(F)cc2)n1CCO`, for which the log partition coefficient (logP) came out at 1.33.

With `Cc1ccc(Nc2c([N+](=O)[O-])c(C)nn2-c2ccccc2)cc1`, the logP stood at 3.43.

As for `N#Cc1ccccn1`, the logP is 0.45.

Take `NC(=S)NNCc1ccc2c(c1)OCO2`: the log partition coefficient (logP) came to 0.14.

On to `Cc1cccc(C(N)=O)c1O`, for which the lipophilicity (logP) was 2.12.

Turning to `COc1ccc2c(=O)c(C)c(-c3ccccc3)oc2c1CN(C)C`, the logP stood at 3.65.

`COC1CC(OC2CCC3(C)C2CCC2C3CCC3(C)C(C4=CC(=O)OC4)CCC23O)OC(C)C1O` (configuration not stated) displayed a logP of 2.37.

`CCCCCCOc1ccc(CC(=O)O)cc1`: the logP was determined as 3.96.

Take `NC(=O)NCCCCn1nc(-c2ccccc2)ccc1=O`: the logP amounted to 1.21.

With `COCN(C#N)C1CC(OC2CC(O)(C(C)=O)Cc3c(O)c4c(c(O)c32)C(=O)c2c(OC)cccc2C4=O)OC(C)C1O` (configuration not stated), the lipophilicity (logP) was determined as 2.64.

Compound `Cc1nc(N)sc1C(=O)CCN1CCCC1` came in with a logP of 1.74.

In the case of `N#CCCO`, the log partition coefficient (logP) was -0.94.

The compound `CCc1ncc([N+](=O)[O-])n1CCNC(=S)OC` came in with a logP of 1.46.

Regarding `CSc1nnc(-c2cc(Cl)cc(Cl)c2)c(=O)n1N`, the logP amounted to 3.02.

In the case of `CNC12CC(O)CCC1CCc1ccccc12` (configuration not stated), the logP turned out to be 2.37.

In the case of `Cc1ccccc1C=O`, the logP was 2.26.

In turn, `COc1ccc(CON2C(=O)CC3(CCCC3)C2=O)cc1` came in with a logP of 2.23.

In the case of `CC(=O)Nc1cc(C(C)(C)C)c(O)cc1C`, the logP is 2.18.

`CN1CC(O)CN(C)C1=Nc1ncc([N+](=O)[O-])s1` (configuration not stated) showed a logP of 0.16.

Turning to `Cn1c(S)nnc(-c2ccc(F)cc2)c1=O`, the logP came to 2.38.

As to `CC(=O)Nc1ccc2c(c1)S(=O)(=O)c1ccc(C)cc1C2=O`, the logP was determined as 2.76.

The compound `CCNC1C2CCC(C2)C1c1ccccc1` (configuration not stated) displayed a logP of 3.2.

In the case of `OC(CN1C2CCCCCC21)Cn1ccnc1` (configuration not stated), the log partition coefficient (logP) turned out to be 1.44.

For the compound `CSc1nnc(C2CCOCC2)c(=O)n1N`, the logP came to 1.07.

Regarding `CNC=Nc1ccc(C)cc1C`, the logP came out at 2.92.

`COC(=O)C1CC2C3CCC4=CC(=O)C=CC4(C)C3C(O)CC2(C)C1C(=O)CO` (configuration not stated) registered a lipophilicity (logP) of 1.7.

For the compound `COc1ncnc2c1ncn2C1OC(CO)C(OC(=O)C(C)(C)C)C1OC(=O)C(C)(C)C` (configuration not stated), the logP worked out at 3.61.

Consider `COc1cccc(C2(O)CCCCC2CN(C)C)c1` (configuration not stated), for which the lipophilicity (logP) came to 2.51.

On to `CCN(CC)C(=O)Nc1ccc(OCC(O)CNC(C)(C)C)c(C(C)=O)c1` (configuration not stated), for which the logP is 1.92.

The compound `CCCCC(=O)OC1C(CO)OC(n2cnc3c(OC)ncnc32)C1OC(=O)CCCC` (configuration not stated) showed a logP of 3.83.

In turn, `CC(=O)OC(CNC(C)C)COc1cccc2ccccc12` (configuration not stated) returned a lipophilicity (logP) of 4.34.

Compound `Cc1cc(C)c(C)c(C)c1` registered a logP of 4.1.

For `CCCc1c2oc(C(=O)O)cc(=O)c2cc2c(=O)cc(C(=O)O)n(CC)c12`, the logP was 2.22.

Consider `Nc1cc(Cl)c(Cl)cc1Cl`, for which the logP is 3.45.

In turn, `Cc1onc(-c2c(F)cccc2Cl)c1C(=O)NC1C(=O)N2C1SC(C)(C)C2C(=O)O` (configuration not stated) registered a logP of 2.58.

On to `Cc1c(F)c(F)c(C(=O)O)c(F)c1F`, for which the logP stood at 3.15.

As to `CC(C)NC(=N)NC(=N)Nc1ccc(Cl)cc1`, the log partition coefficient (logP) was found to be 2.53.

For the compound `CCCCCCCCOc1ccc(NC(=O)OCCN2CCOCC2)cc1`, the logP came out at 4.8.

Consider `COc1c(O)c(Cl)c(Cl)c(Cl)c1Cl`, for which the lipophilicity (logP) amounted to 4.59.

The compound `Nc1ncn(C2OC(CO)C(O)C2O)c(=O)n1` (configuration not stated) yielded a lipophilicity (logP) of -2.17.

`Clc1ccc(-c2ccc(Cl)c(Cl)c2Cl)cc1Cl` displayed a logP of 6.79.

For `CCCOC(=O)n1c(NC(=O)OC)nc2cc(C(=O)c3ccccc3)ccc21`, the logP came to 3.43.

For `CCCCCCN(C)C(=O)c1cccc(Oc2ccccc2)c1`, the logP was found to be 5.01.

`CCOC(=O)NC1=NCC(c2ccc(CO)cc2)N1C` (configuration not stated) showed a logP of 0.84.

The compound `Cc1c(O)c(=O)ccn1CCCCO` had a logP of -0.74.

Consider `NC(=O)OC1c2ccccc2C2CCCCC2C1OC(N)=O` (configuration not stated), for which the log partition coefficient (logP) was 2.17.

In turn, `CCOC(=O)c1cc(=O)[nH]c(=O)[nH]1` registered a log partition coefficient (logP) of 0.68.

`CCCCCC(C)N` (configuration not stated) came in with a logP of 2.4.

Compound `N=C(N)N1CCc2ccccc2C1` yielded a log partition coefficient (logP) of 0.75.

Consider `Cc1ccccc1C(=O)C(C)CN1CCCCC1` (configuration not stated), for which the lipophilicity (logP) was 3.69.

For the compound `CCN(CC)C(=O)CCn1ccc(=O)c(O)c1C`, the logP is -0.36.

Compound `C=C[C@H]1CN2CCC1C[C@@H]2[C@@H](O)c1ccnc2ccccc12` (some centres not stated) returned a logP of 2.68.

As to `CCOP(=O)(OCC)SCS(=O)C(C)(C)C` (configuration not stated), the logP amounted to 2.66.
